Usually MIC stands for the lowest concentration that inhibits growth of the organism.

Molecules are shown by their SMILES. Converted amounts (≈) assume the structure as drawn. Read-outs that look alike come from different tables or passages of the source. Residues, ends and D or L forms follow the SMILES beside them.

Results on 4 molecules are retold here after patent US20110143999A1, “FOWLICIDINS AND METHODS OF ITS USE” (priority 2005, published 2011).

The subject of one data set is LPS from E. coli O111:B4. The experiment in a line: LPS binding assay (chromogenic Limulus amebocyte lysate). The following applies: Table V; 50% inhibition of LPS-mediated procoagulant activation.
Data set [1] relates to E. coli ATCC 25922.
The test system of data set [2] is S. typhimurium ATCC 14028.
Data set [3] has as its system L. monocytogenes ATCC 19115. In words: Modified broth microdilution assay (1% MHB). The following applies: Table V, Example 2, listed as fowlicidin-1-K^7L^12K^14L^16K^18. On the technique in general: Broth dilution looks for growth in wells or tubes with falling amounts of substance.
Data set [4] concerns S. aureus ATCC 25923.
In data set [5] the test system is three Gram-negative and four Gram-positive bacteria. The following applies: Example 3; 20% TSB, 25 mM NaHCO3, 1 mM NaH2PO4, with or without 100 mM NaCl.
The test system of data set [6] is S. typhimurium DT104 ATCC 700408.
The subject of data set [7] is S. aureus (MRSA) ATCC BAA-39.
Data set [8] deals with E. coli O157:H7 ATCC 700728. The following applies: 1% MHB.
The test system of data set [9] is K. pneumoniae ATCC 13883.
Data set [10] has as its system S. typhimurium ATCC 14028. The source holds these as a separate data set.
Data set [11] relates to K. pneumoniae ATCC 13883. The source holds these as a separate data set.
Data set [12] has as its system MDCK cells. The experiment in a line: Cytotoxicity assay (alamarBlue). (In general: Resazurin is reduced to fluorescent resorufin, in cell work by metabolically active cells.)
The subject of data set [13] is MDCK cells.
Data set [14] has as its system S. aureus ATCC 25923. This is another data set of the same source.
Data set [15] relates to S. aureus (MRSA) ATCC 43300.
The subject of data set [16] is S. aureus (MRSA) ATCC BAA-39. This is another data set of the same source.
Data set [17] concerns S. enteritidis ATCC 13076.
The test system of data set [18] is E. coli ATCC 25922. This is another data set of the same source.
Data set [19] relates to L. monocytogenes ATCC 19115.
Data set [20] relates to S. typhimurium DT104 ATCC 700408. The source holds these as a separate data set.
In data set [21] the test system is Gram-negative and Gram-positive bacteria. Conditions: Example 4, summary of Table VII.

`CC[C@H](C)[C@H](NC(=O)[C@H](C)NC(=O)[C@H](CCCNC(=N)N)NC(=O)[C@H](Cc1ccc(O)cc1)NC(=O)[C@H](CC(C)C)NC(=O)[C@H](CCCCN)NC(=O)[C@H](Cc1ccc(O)cc1)NC(=O)[C@H](CC(C)C)NC(=O)[C@H](C)NC(=O)[C@H](CCCCN)NC(=O)[C@@H](NC(=O)[C@H](CC(C)C)NC(=O)[C@H](CCCNC(=N)N)NC(=O)[C@@H](NC(=O)[C@@H](NC(=O)[C@H](CC(C)C)NC(=O)[C@H](CCCCN)NC(=O)[C@H](Cc1c[nH]c2ccccc12)NC(=O)[C@@H](NC(=O)[C@H](CCCNC(=N)N)NC(=O)[C@H](CCCCN)NC(=O)[C@@H](NC(=O)[C@@H](N)CCCNC(=N)N)C(C)C)C(C)C)C(C)C)[C@@H](C)CC)C(C)C)C(=O)N[C@@H](CCCCN)C(=O)N[C@@H](CCCCN)C(=O)N[C@@H](CCCCN)C(=O)O` [Fowl-1-KLKLK] (H-RVKRVWKLVIRLVKALYKLYRAIKKK-OH; N-terminus assumed) yielded an EC50 of 11 µM. In the data set on LPS from E. coli O111:B4, this molecule came in with an EC50 of 6 µM. Besides, in the data set on E. coli ATCC 25922 [1] (Table V, Example 2, 1% MHB, listed as fowlicidin-1-K^7L^12K^14L^16K^18), the “Antibacterial Activity (MIC, μM) E. coli” value was > 7.6 µM. The “Antibacterial Activity (MIC, μM) Salmonella” value in data set [2] was found to be 1.9 µM. In addition, the “Antibacterial Activity (MIC, μM) Listeria” value in [3] was > 7.6 µM. Also, the “Antibacterial Activity (MIC, μM) S. aureus” value with S. aureus ATCC 25923 [4] was 1.9 µM.
For the molecule `CC[C@H](C)[C@H](NC(=O)[C@@H](NC(=O)[C@@H](NC(=O)[C@@H](NC(=O)[C@@H](NC(=O)[C@H](CCCCN)NC(=O)[C@@H]1CCCN1)C(C)C)[C@@H](C)O)[C@@H](C)CC)[C@@H](C)O)C(=O)N[C@@H](CCC(N)=O)C(=O)NCC(=O)N[C@@H](CO)C(=O)N[C@@H](C)C(=O)N[C@@H](CCCNC(=N)N)C(=O)N[C@@H](Cc1ccccc1)C(=O)O` [Fowl-2(19-31)] (H-PKVTITIQGSARF-OH; N-terminus and C-terminus assumed), in data set [5], the “MIC (range over bacteria tested)” value was > 32 µM.
Regarding `CC[C@H](C)[C@H](NC(=O)[C@H](CCCCN)NC(=O)[C@H](CCCNC(=N)N)NC(=O)[C@H](CC(C)C)NC(=O)[C@H](Cc1ccccc1)NC(=O)[C@H](CCCNC(=N)N)NC(=O)CNC(=O)[C@H](Cc1ccccc1)NC(=O)[C@H](CCCNC(=N)N)NC(=O)CNC(=O)[C@H](CCCNC(=N)N)NC(=O)[C@H](CCC(N)=O)NC(=O)[C@@H](NC(=O)[C@@H](N)CC(C)C)C(C)C)C(=O)N[C@@H](CCCNC(=N)N)C(=O)N[C@@H](CCCNC(=N)N)C(=O)N[C@@H](Cc1ccccc1)C(=O)N[C@@H](CCCNC(=N)N)C(=O)N1CCC[C@H]1C(=O)N[C@@H](CCCCN)C(=O)N[C@H](C(=O)N[C@H](C(=O)N[C@H](C(=O)N[C@H](C(=O)N[C@H](C(=O)N[C@@H](CCC(N)=O)C(=O)NCC(=O)N[C@@H](CO)C(=O)N[C@@H](C)C(=O)N[C@@H](CCCNC(=N)N)C(=O)N[C@@H](Cc1ccccc1)C(=O)O)[C@@H](C)CC)[C@@H](C)O)[C@@H](C)CC)[C@@H](C)O)C(C)C` [Fowlicidin-2] (H-LVQRGRFGRFLRKIRRFRPKVTITIQGSARF-OH; N-terminus and C-terminus assumed), the minimal inhibitory concentration (MIC) in data set [6] is 0.66 µM (≈ 2.48 µg/mL); against E. coli ATCC 25922 [1], 2.66 µM (≈ 10 µg/mL); in data set [7] it was 0.66 µM (≈ 2.48 µg/mL); in data set [8] (NaCl 0 mM) it was 0.66 µM (≈ 2.48 µg/mL); in data set [8] (NaCl 100 mM), 1.33 µM (≈ 5 µg/mL); against S. aureus ATCC 25923 [4] it was 0.66 µM (≈ 2.48 µg/mL). In addition, the minimal inhibitory concentration (MIC) in the data set with K. pneumoniae ATCC 13883 [9] was determined as 0.66 µM (≈ 2.48 µg/mL). Further, the “MIC (range over bacteria tested)” value in [5] lay within 0.5 to 2 µM.
As for `CC[C@H](C)[C@H](NC(=O)CNC(=O)[C@H](C)NC(=O)[C@H](C)NC(=O)[C@@H](NC(=O)[C@@H](NC(=O)[C@H](CC(N)=O)NC(=O)[C@@H](NC(=O)[C@H](C)NC(=O)[C@@H](NC(=O)[C@@H]1CCCN1C(=O)[C@@H](NC(=O)[C@H](CC(C)C)NC(=O)[C@@H]1CCCN1C(=O)[C@H](Cc1c[nH]c2ccccc12)NC(=O)[C@H](Cc1ccccc1)NC(=O)[C@H](CCCNC(=N)N)NC(=O)[C@@H](N)CCCCN)C(C)C)C(C)C)[C@@H](C)CC)[C@@H](C)O)C(C)C)C(=O)N[C@@H](CC(N)=O)C(=O)N[C@@H](CC(C)C)C(=O)N[C@@H](Cc1ccc(O)cc1)C(=O)N[C@@H](CCCCN)C(=O)N[C@@H](C)C(=O)N[C@H](C(=O)N[C@@H](CCCNC(=N)N)C(=O)N[C@@H](CCCNC(=N)N)C(=O)N[C@@H](CCCCN)C(=O)O)[C@@H](C)CC` [Fowlicidin-3] (H-KRFWPLVPVAINTVAAGINLYKAIRRK-OH; N-terminus and C-terminus assumed), the MIC in [10] was determined as 2 µM (≈ 6.19 µg/mL); with K. pneumoniae ATCC 13883 [11], 1 µM (≈ 3.1 µg/mL); in the data set on S. aureus ATCC 25923 [14], 1 µM (≈ 3.1 µg/mL); in [15], 1 µM (≈ 3.1 µg/mL); in data set [16] it was 1 µM (≈ 3.1 µg/mL); in [17], 2 µM (≈ 6.19 µg/mL). In addition, the minimal inhibitory concentration (MIC) (in the data set on E. coli ATCC 25922 [18]; in data set [19]; in [20]) was 2 µM (≈ 6.19 µg/mL) in each case. In the data set with MDCK cells [12] (in the presence of serum, against all bacterial strains tested), the “cytotoxicity (EC50) fold higher than MICs” value is listed as 10-to 40 fold. Moreover, the EC50 in the data set on MDCK cells [12] (read-out: 50% effective concentration (EC50), MDCK cell killing, Example 4, without serum, FIG. 20A) was 12 µM. In addition, the “fold reduction in toxicity in the presence of 10% FBS” value in the data set with MDCK cells [13] is 2 fold. The “MICs (range over bacteria tested)” value in [21] fell in the range of 1 to 2 µM.
